From BindingDB's records for doi:10.1021/jm300025r (Astrazeneca, 2012)

Assays:
[1] = Inhibition of CHK1 in human HT29 cells assessed as check point abrogation
[2] = Inhibition of CHK1 in human HT29 cells assessed as abrogation of camptothecin induced check point

| EC50 [1] [nM] | EC50 [2] [nM] | Structure (SMILES) |
| --- | --- | --- |
| 1900 | 40 | N#Cc1cccc(-c2cc(NC(N)=O)c(C(=O)N[C@H]3CCCNC3)s2)c1 |
| > 13000 | 940 | N#Cc1cccc(-c2cc(C(=O)N[C@H]3CCCNC3)c(NC(N)=O)s2)c1 |
| 600 | 30 | N#Cc1ccc(-c2cc(NC(N)=O)c(C(=O)N[C@H]3CCCNC3)s2)cc1 |
| 5800 | 200 | NC(=O)Nc1cc(-c2ccc(Cl)c(Cl)c2)sc1C(=O)N[C@H]1CCCNC1 |
| 5700 | 150 | NC(=O)Nc1sc(-c2ccc(Cl)c(Cl)c2)cc1C(=O)N[C@H]1CCCNC1 |
| 1100 | 20 | NC(=O)Nc1cc(-c2ccc(F)cc2F)sc1C(=O)N[C@H]1CCCNC1 |
| 1400 | 190 | NC(=O)Nc1sc(-c2ccc(F)cc2F)cc1C(=O)N[C@H]1CCCNC1 |
| 1500 | 60 | NC(=O)Nc1cc(-c2cccc(F)c2F)sc1C(=O)N[C@H]1CCCNC1 |
| 2500 | 60 | NC(=O)Nc1cc(-c2cc(F)cc(F)c2)sc1C(=O)N[C@H]1CCCNC1 |
| 1500 | 30 | NC(=O)Nc1sc(-c2cc(F)cc(F)c2)cc1C(=O)N[C@H]1CCCNC1 |
| 700 | 10 | NC(=O)Nc1cc(-c2cccc(Cl)c2)sc1C(=O)N[C@H]1CCCNC1 |
| 13000 | 20 | NC(=O)Nc1cc(-c2ccc(F)cc2)sc1C(=O)N[C@H]1CCCNC1 |
| 2200 | 20 | NC(=O)Nc1cc(-c2ccccc2F)sc1C(=O)N[C@H]1CCCNC1 |
| 590 | 20 | NC(=O)Nc1cc(-c2ccccc2)sc1C(=O)N[C@H]1CCCNC1 |
| 1800 | 100 | NC(=O)Nc1sc(-c2cccc(F)c2F)cc1C(=O)N[C@H]1CCCNC1 |
| 1060 | 80 | NC(=O)Nc1sc(-c2ccccc2F)cc1C(=O)N[C@H]1CCCNC1 [1-(3-((S)-piperidin-3-ylcarbamoyl)-5-(2-fluorophenyl)thiophen-2-yl)urea] |
| 1200 | 40 | NC(=O)Nc1sc(-c2cccc(Cl)c2)cc1C(=O)N[C@H]1CCCNC1 [1-(3-((S)-piperidin-3-ylcarbamoyl)-5-(3-chlorophenyl)thiophen-2-yl)urea] |
| 840 | 20 | NC(=O)Nc1sc(-c2cccc(F)c2)cc1C(=O)N[C@H]1CCCNC1 [1-(3-((S)-piperidin-3-ylcarbamoyl)-5-(3-fluorophenyl)thiophen-2-yl)urea] |
| 1700 | 8 | N#Cc1ccc(-c2cc(C(=O)N[C@H]3CCCNC3)c(NC(N)=O)s2)cc1 [(S)-1-(5-(4-cyanophenyl)-3-(piperidin-3-ylcarbamoyl)thiophen-2-yl)urea] |
| 600 | 30 | NC(=O)Nc1sc(-c2ccc(F)cc2)cc1C(=O)N[C@H]1CCCNC1 [(S)-1-(5-(4-fluorophenyl)-3-(piperidin-3-ylcarbamoyl)thiophen-2-yl)urea] |
